# Laboratory results published in paper PMC5216130, “Saturated palmitic acid induces myocardial inflammatory injuries through direct binding to TLR4 accessory protein MD2” (Nature Communications, 2017).
# Columns and labels:
# [1] = biological target: T1, MD2 (myeloid differentiation protein 2; rhMD2) (Homo sapiens, UniProt Q9Y6Y9); assay: SPR (ProteOn XPR36); confirmed on ForteBio Octet HTX (KD=[…]) and by biotin-PA ELISA; assay type: binding
# T1 construct: gene LY96; recombinant human MD2 (rhMD2)
# T1 sequence (Q9Y6Y9 19-160): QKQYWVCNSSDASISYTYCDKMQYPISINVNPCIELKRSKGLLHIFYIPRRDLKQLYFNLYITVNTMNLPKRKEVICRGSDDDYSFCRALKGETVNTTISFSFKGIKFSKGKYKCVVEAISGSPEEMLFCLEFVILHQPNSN
# [2] = biological target: T1, MD2 (myeloid differentiation protein 2; rhMD2); assay: ForteBio Octet HTX (called SPR in the paper); assay type: binding
compound,measurement,setting,value
"CCCCCCCCCCCCCCCC(=O)O [PA, palmitic acid]",Kd,[1],31.6 µM
CCCCC/C=C\C/C=C\CCCCCCCC(=O)O [linoleic acid],Kd,[2],54 µM
CCCCCCCC/C=C\CCCCCCCC(=O)O [oleic acid],Kd,[2]; read-out: Kd,35 µM
